Values of other authors, collected in patent US20060045928A1, “Composition containing herbal medicine component for promoting absorption and production method thereof” (priority 2004, published 2006).

Conditions: carrot fried with oil

SMILES: CC1=C(/C=C/C(C)=C/C=C/C(C)=C/C=C/C=C(C)/C=C/C=C(C)/C=C/C2=C(C)CCCC2(C)C)C(C)(C)CCC1 [β-carotene]
- absorption rate improvement, compared with eating raw carrot: 5 to 10 times
